In US8022235B2, “Compositions of phospholipid ether boronic acids and esters and methods for their synthesis and use” (Cellectar, Inc., priority 2007, dated 2011):

Legend:
Lung A-549 (NSCLC) = assay: Imaging and tissue distribution, tumor model; format: in vivo, SCID Mouse; details: Adenocarcinoma
Lung NCI H-69 (Oat Cell) = assay: Imaging and tissue distribution, tumor model; format: in vivo, Nude Mouse; details: Adenocarcinoma
[1] = system: Walker-256 carcinosarcoma; assay: Tissue distribution of radioactivity in Walker-256 carcinosarcoma model; format: in vivo, rats
Protocol: The avidity of PLE and APC analogs to localize in tumors was evaluated in several animal models. The PC-3 model represents a human tumor cell line that was used to determine the target (tumor) to non-target ratio of NM404 and NM412 in head to head comparison in order to select a candidate for an initial human pharmacokinetic trial in prostate cancer patients. The MatLyLu (Dunning R3327 rat) model, a rat prostate tumor line, was used specifically to screen 9 specific analogs prior to entering them into control for dosimetry and tumor-bearing animals for determining tumor/background ratios. Finally, the Walker-256 carcinosarcoma model was used for quantitative tissue distribution purposes.
In order to expedite the screening process and minimize the number of tumor bearing animals utilized in multiple time point tissue distribution studies, new radioiodinated homologs were imaged by gamma camera scintigraphy in the rat Dunning […] (MAT LyLu strain) prostate cancer model. Thus, male Copenhagen rats received a subcutaneous injection of MAT LyLu cells (1×10^6 cells) in the thigh 10-14 days prior to injection of the radioiodinated PLE analogs (30-40 μCi) in 2% Tween-20 solution. Gamma camera images were obtained at multiple time points including 24 and 48 hours post injection. […] Tissue distribution of radioactivity in rats bearing Walker-256 carcinosarcoma was assessed at various time intervals following intravenous administration of the radioiodinated chain length homologs. The first group of compounds that was tested included three alkylphosphocholines: a shorter chain analog with seven carbons NM396 and two analogs with a longer chain length, 13 (NM397, C15 alkyl chain length) and 1 (NM404, C18 alkyl chain length).

Min Mouse Intestinal = assay: Imaging and tissue distribution, tumor model; therapeutic responses at imaging doses; format: in vivo
Excerpt: During the course of mouse tumor uptake and retention studies with “imaging” doses (15-20 μCi/20 g mouse) of ^125I-labeled NM404, several apparent therapeutic responses have been observed (unpublished results). […] Some of these animals also lost all hair above larger mammary tumors at around 8 days after injection. Moreover, these mice also get intestinal tumors and usually suffer from intestinal bleeding resulting in severe anemia, which renders their feet white. […] Another compelling example of tumor regression is illustrated in FIG. 13. Two litter mates each received SCC1 and SCC6 xenografts in their left and right flanks, respectively. One mouse received a single injection of ^125I-NM404 (20 μCi). […] These coincidental findings were reconfirmed in two separate age-matched groups each involving more than 6 mice.

Melanoma = assay: Imaging and tissue distribution, tumor model; format: in vivo, Mouse xenograft; details: Adenocarcinoma
Excerpt: (§1) Imaging and tissue distribution studies performed in mouse models aimed at determining the uptake characteristics in a wide variety of tumor models are summarized in Table 1, below.

Hepatocellular Carcinoma = assay: Imaging and tissue distribution, tumor model; format: in vivo, Spontaneous TGF-α mouse; details: Adenocarcinoma
Excerpt: as §1

[2] = Human safety studies of unlabeled NM404; format: in vivo; details: normal male humans, mass of 10 times the anticipated imaging dose
Protocol: Formal toxicology studies of NM404 in male rats and rabbits were performed at the Toxicology Research Center of the State University of New York at Buffalo under the direction of Dr. Paul Kostyniak. Drug vehicle and drug product were provided to Dr. Kostyniak by Dr. Raymond Counsell of the University of Michigan for testing as described in the appended synopses of Study 27 and Study 28. […] Human safety studies of unlabeled NM404 were initiated in normal male humans at a mass of 10 times the anticipated imaging dose and about 21 times the anticipated therapy dose. […] This toxicology study was performed under GLP conditions.

Blood plasma kinetics = assay: Blood plasma kinetics; parameters: species or system rats; details: rat, in vivo
[3] = system: human PC-3 prostate tumor xenografts; assay: Scintigraphy, microPET and tissue distribution in PC-3 tumor model; format: in vivo, SCID mice; details: metastatic prostate tumor model, scintigraphy, FIG. 9

With C[N+](C)(C)CCOP(=O)([O-])OCCCCCCCCCCCCCCCCCCc1ccc(I)cc1 [NM404, 18-(p-iodophenyl)-octadecyl phosphocholine] the Uptake (Lung A-549 (NSCLC)) was “Yes”, the Uptake (Lung NCI H-69 (Oat Cell)) was “Yes” and the “peak radioactivity in the tumor” value ([1]; 48 hours after administration) was 1.14±0.01 % of ID/g. For the same compound, the blood levels ([1]; 120 hours) was 0.6±0.1 % of ID/g, the Uptake ([1]; Carcinosarcoma) was “Yes” and the “time of peak radioactivity in the tumor” value ([1]; after intravenous administration) was 48 h. For the same compound, the “total radioactivity levels in the thyroid” value ([1]; considering the small mass of the gland) was “relatively low”, the “radioactivity in liver, kidney and duodenum compared with C15 analog 13” value ([1]; rat, in vivo) was “significantly lower” and the Uptake (Min Mouse Intestinal; Adenocarcinoma) was “Yes”. The “survival vs untreated litter mates” value (Min Mouse Intestinal; after 21 days, both intestinal models) was “easily outlived their untreated litter mates”, the “feet color (anemia from intestinal bleeding)” value (Min Mouse Intestinal; around 5 days after a single injection, ^125I-labeled, 15-20 μCi/20 g mouse) was “reverted to a pink color” and the “intestinal tumors remaining at dissection” value (Min Mouse Intestinal; of the expected 20 or so, ^125I-labeled, 15-20 μCi/20 g mouse) was “only a very few, if any”. The Uptake (Melanoma) was “Yes”, the Uptake (Hepatocellular Carcinoma) was “Yes” and the toxicity [2] was “no toxicity attributable to the drug substance”. The “distribution phase half life” value (Blood plasma kinetics) was 4.86 h, the “elimination half life time in plasma” value (Blood plasma kinetics) was “roughly 209 hours” and the “localization in lymph node metastases” value [3] was “localize in lymph node metastases”.
